Laboratory results taken from paper PMC11868595, “Safety, pharmacokinetics and efficacy of HA121-28 in patients with advanced solid tumors and RET fusion-positive non-small-cell lung cancer: a multicenter, open-label, single-arm phase 1/2 trial” (Signal Transduction and Targeted Therapy, 2025).
Like-named read-outs stand apart in the source and are kept apart here. Marks after values point to notes of the source that are not given here.

What was measured:
FLT3 = FLT3 (Homo sapiens, UniProt P36888); test: Tyrosine kinase inhibition; type: biochemical
Metabolites in plasma = settings: dogs
LCK = LCK (Homo sapiens, UniProt P06239); test: Tyrosine kinase inhibition; type: biochemical
TrkA = TrkA (Homo sapiens, UniProt P04629); test: Tyrosine kinase inhibition; type: biochemical
matrigel angiogenesis = type: in vivo, mouse; settings: induced by VEGF and FGF
[1] = 28-day repeated dose toxicity; type: in vivo, SD rats
EGFR and ERK activation = test: EGF-stimulated activation of EGFR and ERK in A431 cells; type: cell-based, human; settings: 10 ng/mL EGF, concentration-dependent
BTK = BTK (Homo sapiens, UniProt Q06187); test: Tyrosine kinase inhibition; type: biochemical
C-KIT = C-KIT (Homo sapiens, UniProt P10721); test: Tyrosine kinase inhibition; type: biochemical
CFPAC-1 cells = test: Tumor cell proliferation in vitro; type: cell-based
Mouse micronucleus test = settings: in vivo mouse micronucleus test
CHL = CHL test; type: cell-based
RET and ERK activation = test: Activation of RET and ERK in TT cells; type: cell-based, human; settings: concentration-dependent
Plasma protein binding [2] = type: in vitro ADME; settings: rats
[3] = test system: human thyroid cancer TT tumors; test: TT tumors in nude mice; type: in vivo; settings: for RTV ±SD / T/C / Terminal Tumor Volume: TT tumors
Source text: (§1) was higher than that of vandetanib .
as §1
Table S15. Efficacy of HA121-28 on human thyroid cancer TT tumors

PDGFRα = PDGFRα (Homo sapiens, UniProt P16234); test: Tyrosine kinase inhibition; type: biochemical
BLK = BLK (Homo sapiens, UniProt P51451); test: Tyrosine kinase inhibition; type: biochemical
Plasma protein binding [4] = type: in vitro ADME; settings: dogs
Single-dose toxicity [5] = type: in vivo, SD rats; settings: single oral gavage
Procedure: (§2) mg/kg. The maximum tolerated dose (MTD) was 500 mg/kg. Gastrointestinal, hepatic, and immune system toxicity may have contributed to the rat deaths.
(§3) 2.2. Dose expansion phase
(§4) […] To investigate the efficacy of HA121- 28 tablets in patients with advanced solid tumors.
(§5) This study is a single- arm, open- label, dose-escalation, and dose-expansion phase 1 clinical studywith single and multiple dosing.

[6] = Safety pharmacology: respiratory function and neurological behavior; type: in vivo, rats; settings: single oral dose 30, 100, and 300 mg/kg
Single-dose toxicity [7] = type: in vivo, Beagle dogs; settings: single oral dose 500 and 1000 mg/kg
Procedure: as §2, §3, §4, §5

BEL-7402 cells = test: Tumor cell proliferation in vitro; type: cell-based; settings: BEL-7402
[8] = test system: arterial ring angiogenesis; test: Rat arterial ring angiogenesis
FGFR4 = FGFR4 (Homo sapiens, UniProt P22455); test: Tyrosine kinase inhibition; type: biochemical
SGC-7901 cells = test: Tumor cell proliferation in vitro; type: cell-based, human; settings: SGC7901
FLT-1 = FLT-1 (Homo sapiens, UniProt P17948); test: Tyrosine kinase inhibition; type: biochemical; settings: read-out: IC50, FLT1
AXL = AXL (Homo sapiens, UniProt P30530); test: Tyrosine kinase inhibition; type: biochemical

Sequence of PDGFRα (P16234 24-1089): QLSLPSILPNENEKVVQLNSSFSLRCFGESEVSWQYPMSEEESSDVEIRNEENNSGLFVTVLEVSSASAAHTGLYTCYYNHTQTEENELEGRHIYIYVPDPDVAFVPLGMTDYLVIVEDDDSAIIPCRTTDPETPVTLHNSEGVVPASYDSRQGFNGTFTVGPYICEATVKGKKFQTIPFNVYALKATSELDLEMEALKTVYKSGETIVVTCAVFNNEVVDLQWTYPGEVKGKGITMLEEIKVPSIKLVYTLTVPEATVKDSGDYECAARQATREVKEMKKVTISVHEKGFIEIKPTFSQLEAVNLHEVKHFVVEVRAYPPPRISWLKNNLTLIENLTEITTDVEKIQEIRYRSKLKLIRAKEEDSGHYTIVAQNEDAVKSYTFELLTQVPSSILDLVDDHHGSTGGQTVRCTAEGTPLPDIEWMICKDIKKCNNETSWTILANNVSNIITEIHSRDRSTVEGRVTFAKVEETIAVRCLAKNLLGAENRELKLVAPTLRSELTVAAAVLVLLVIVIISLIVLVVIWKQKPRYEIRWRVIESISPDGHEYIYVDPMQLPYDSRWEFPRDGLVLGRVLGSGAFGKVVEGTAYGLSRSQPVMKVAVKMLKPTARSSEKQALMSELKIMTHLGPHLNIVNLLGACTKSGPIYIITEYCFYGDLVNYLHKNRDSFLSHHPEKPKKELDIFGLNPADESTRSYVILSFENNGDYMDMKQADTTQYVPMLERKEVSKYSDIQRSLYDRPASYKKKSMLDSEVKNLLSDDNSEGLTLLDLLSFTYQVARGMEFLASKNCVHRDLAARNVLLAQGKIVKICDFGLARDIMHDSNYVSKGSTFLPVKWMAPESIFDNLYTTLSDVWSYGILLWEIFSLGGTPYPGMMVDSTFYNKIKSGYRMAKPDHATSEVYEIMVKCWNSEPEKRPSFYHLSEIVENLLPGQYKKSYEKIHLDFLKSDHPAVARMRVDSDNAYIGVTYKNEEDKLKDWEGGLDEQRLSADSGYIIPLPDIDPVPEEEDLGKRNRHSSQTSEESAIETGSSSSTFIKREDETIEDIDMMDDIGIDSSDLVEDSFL
Sequence of TrkA (P04629 33-796): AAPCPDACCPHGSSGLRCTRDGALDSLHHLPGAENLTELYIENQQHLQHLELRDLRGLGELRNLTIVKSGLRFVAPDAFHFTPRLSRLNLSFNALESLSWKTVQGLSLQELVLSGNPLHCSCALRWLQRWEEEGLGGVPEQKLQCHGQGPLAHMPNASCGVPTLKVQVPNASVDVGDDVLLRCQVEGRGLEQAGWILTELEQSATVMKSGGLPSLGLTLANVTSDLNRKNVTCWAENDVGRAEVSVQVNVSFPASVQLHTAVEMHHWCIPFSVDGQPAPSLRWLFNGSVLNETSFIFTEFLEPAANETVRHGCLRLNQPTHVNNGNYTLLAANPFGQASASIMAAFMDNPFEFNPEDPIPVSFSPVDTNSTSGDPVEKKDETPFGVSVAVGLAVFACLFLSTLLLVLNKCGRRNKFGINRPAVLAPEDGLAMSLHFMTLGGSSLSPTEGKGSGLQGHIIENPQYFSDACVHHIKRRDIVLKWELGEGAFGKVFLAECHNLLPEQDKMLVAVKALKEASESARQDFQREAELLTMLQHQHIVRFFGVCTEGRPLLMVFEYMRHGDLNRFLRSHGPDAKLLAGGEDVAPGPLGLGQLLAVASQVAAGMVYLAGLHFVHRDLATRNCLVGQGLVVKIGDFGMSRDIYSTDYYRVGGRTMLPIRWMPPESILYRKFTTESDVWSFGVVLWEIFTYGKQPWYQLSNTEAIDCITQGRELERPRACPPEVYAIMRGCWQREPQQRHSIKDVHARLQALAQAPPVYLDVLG
Sequence of FLT3 (P36888 27-993): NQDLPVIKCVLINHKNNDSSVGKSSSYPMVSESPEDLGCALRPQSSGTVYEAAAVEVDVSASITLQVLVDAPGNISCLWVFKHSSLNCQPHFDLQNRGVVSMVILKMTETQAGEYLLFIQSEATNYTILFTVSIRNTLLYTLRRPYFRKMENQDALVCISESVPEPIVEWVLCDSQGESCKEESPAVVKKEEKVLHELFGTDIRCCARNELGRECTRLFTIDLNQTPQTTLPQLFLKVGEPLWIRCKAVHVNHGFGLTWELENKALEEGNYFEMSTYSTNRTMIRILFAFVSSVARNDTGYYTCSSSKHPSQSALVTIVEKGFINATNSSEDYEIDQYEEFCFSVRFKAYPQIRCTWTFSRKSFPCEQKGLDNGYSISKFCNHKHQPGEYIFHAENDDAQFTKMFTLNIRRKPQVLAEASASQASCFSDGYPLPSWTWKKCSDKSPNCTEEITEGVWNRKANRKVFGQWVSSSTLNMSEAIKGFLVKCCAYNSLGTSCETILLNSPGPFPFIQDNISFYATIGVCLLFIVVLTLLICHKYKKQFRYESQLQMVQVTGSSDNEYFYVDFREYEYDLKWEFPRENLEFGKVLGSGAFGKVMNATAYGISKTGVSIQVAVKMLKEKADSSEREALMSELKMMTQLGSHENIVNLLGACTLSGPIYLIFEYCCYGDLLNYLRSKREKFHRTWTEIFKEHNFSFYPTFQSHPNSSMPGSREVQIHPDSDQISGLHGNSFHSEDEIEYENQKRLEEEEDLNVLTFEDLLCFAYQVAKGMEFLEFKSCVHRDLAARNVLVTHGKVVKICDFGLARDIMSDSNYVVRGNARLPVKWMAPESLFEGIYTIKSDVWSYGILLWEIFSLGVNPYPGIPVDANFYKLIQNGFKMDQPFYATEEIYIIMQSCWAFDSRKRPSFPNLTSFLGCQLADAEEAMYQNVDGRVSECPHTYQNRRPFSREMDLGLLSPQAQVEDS
Sequence of C-KIT (P10721 26-976): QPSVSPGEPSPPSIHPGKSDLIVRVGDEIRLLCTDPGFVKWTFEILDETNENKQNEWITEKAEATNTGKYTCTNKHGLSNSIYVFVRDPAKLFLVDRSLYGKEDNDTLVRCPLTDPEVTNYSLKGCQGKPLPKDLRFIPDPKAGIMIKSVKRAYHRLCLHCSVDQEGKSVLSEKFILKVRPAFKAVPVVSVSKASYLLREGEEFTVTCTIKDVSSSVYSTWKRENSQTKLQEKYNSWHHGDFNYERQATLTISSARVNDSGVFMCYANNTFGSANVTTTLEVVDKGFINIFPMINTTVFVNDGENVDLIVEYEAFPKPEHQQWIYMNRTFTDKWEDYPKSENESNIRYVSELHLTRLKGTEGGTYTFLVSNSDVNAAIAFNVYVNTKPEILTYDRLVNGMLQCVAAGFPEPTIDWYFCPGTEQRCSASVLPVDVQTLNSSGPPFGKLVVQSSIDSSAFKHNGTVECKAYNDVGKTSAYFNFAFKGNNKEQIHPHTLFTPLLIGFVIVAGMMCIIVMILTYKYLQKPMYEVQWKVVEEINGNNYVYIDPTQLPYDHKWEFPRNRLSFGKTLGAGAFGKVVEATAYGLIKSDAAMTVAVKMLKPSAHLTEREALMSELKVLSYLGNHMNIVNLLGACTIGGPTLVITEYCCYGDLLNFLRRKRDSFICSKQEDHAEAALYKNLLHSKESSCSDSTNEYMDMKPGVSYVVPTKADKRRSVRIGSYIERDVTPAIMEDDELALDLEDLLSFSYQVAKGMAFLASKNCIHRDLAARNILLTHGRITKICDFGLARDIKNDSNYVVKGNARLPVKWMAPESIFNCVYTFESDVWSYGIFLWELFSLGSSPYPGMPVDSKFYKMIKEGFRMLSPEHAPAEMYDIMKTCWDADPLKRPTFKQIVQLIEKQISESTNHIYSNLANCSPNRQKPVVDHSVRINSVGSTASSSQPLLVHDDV
Sequence of FLT-1 (P17948 27-1338): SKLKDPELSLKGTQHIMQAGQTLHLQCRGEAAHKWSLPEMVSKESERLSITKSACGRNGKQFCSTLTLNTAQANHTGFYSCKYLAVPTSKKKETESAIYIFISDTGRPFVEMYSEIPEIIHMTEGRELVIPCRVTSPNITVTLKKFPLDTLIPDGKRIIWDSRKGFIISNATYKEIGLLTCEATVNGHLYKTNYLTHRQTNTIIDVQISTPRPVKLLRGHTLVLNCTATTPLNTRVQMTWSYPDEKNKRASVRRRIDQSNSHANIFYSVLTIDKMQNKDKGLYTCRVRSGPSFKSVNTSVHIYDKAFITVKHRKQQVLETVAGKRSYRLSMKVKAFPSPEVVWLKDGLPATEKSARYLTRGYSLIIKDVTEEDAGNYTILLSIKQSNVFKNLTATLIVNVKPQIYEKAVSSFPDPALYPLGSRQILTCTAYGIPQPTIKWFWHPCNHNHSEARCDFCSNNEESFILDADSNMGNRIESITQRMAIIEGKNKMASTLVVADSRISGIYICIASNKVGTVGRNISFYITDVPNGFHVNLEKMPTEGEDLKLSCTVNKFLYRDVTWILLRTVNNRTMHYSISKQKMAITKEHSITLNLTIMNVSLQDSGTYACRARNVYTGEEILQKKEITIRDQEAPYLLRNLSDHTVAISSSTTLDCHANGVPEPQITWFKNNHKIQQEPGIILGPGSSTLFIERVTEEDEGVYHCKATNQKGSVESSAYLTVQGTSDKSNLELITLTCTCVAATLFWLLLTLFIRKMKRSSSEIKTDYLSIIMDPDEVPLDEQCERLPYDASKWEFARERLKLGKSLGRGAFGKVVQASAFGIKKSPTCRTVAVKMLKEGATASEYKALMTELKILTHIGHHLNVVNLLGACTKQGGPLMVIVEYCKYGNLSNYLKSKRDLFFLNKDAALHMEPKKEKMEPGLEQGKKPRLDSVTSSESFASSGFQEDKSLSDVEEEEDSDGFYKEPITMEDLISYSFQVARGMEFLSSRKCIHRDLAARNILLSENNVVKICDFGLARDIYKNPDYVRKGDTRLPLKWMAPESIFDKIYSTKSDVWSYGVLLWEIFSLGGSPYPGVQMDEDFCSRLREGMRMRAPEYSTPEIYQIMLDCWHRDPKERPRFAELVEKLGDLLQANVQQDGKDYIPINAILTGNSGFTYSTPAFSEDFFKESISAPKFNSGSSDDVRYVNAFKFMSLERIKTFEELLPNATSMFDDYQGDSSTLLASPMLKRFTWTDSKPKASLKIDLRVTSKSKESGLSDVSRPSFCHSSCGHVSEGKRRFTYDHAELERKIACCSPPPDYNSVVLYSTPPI

SMILES: COc1cc2c(Nc3ccc(Br)cc3F)ncnc2cc1OCCCCN(C)C.Cl.Cl [HA121-28, N-(4-bromo-2-fluorophenyl)-7-(4-(dimethylamino)butoxy)-6-methoxy quinazolin-4-amine dihydrochloride]
- IC50 (FLT3): 556 nM
- number of metabolites found in plasma (Metabolites in plasma): 7
- IC50 (LCK): 14 nM
- IC50 (TrkA): 1360 nM
- mouse matrigel angiogenesis (matrigel angiogenesis): able to inhibit
- no observed adverse effect level (NOAEL) ([1]; 28-day, SD rats): 15 mg/kg
- highest non-severely toxic dose (HNSTD) ([1]; oral gavage, four consecutive weeks): 15 mg/kg
- activation of EGFR and downstream ERK (EGFR and ERK activation): significantly inhibited
- IC50 (BTK): 446 nM
- IC50 (C-KIT): > 10000 nM
- IC50 (CFPAC-1 cells): 207 ± 38.3 nM
- genetic toxicity (Mouse micronucleus test): negative
- genetic toxicity (CHL): negative
- activation of RET and downstream ERK (RET and ERK activation): significantly inhibited
- plasma protein binding rate (Plasma protein binding [2]): 92.4±1.28%
- in vivo anti-tumor effect ([3]; 50 mg/kg): tumor shrinkage was observed
- RTV ±SD ([3]; 25 mg/kg): 2.1±0.6
- T/C ([3]; 25 mg/kg): 33.8%
- Terminal Tumor Volume ([3]; 25 mg/kg): 307.4±69.5** mm^3
- RTV ±SD ([3]; 50 mg/kg): 0.8±0.2
- T/C ([3]; 50 mg/kg): 13.6%
- Terminal Tumor Volume ([3]; 50 mg/kg): 131.9±66.5** mm^3
- RTV ±SD ([3]; 75 mg/kg): 0.5±0.2
- T/C ([3]; 75 mg/kg): 8.7%
- Terminal Tumor Volume ([3]; 75 mg/kg): 86.9±40.0** mm^3
- IC50 (PDGFRα): 58.7 nM
- IC50 (BLK): 201 nM
- plasma protein binding rate (Plasma protein binding [4]): 91.9±0.857%
- maximum tolerated dose (MTD) (Single-dose toxicity [5]): 500 mg/kg
- respiratory function and neurological behavior [6]: did not affect
- MTD (Single-dose toxicity [7]): 1000 mg/kg
- IC50 (BEL-7402 cells; read-out: IC50): 10000 to 100000 nM
- IC50 (BEL-7402 cells; read-out: IC50, proliferation): 9910 ± 202 nM
- rat arterial ring angiogenesis [8]: able to inhibit
- IC50 (FGFR4): 953 nM
- IC50 (SGC-7901 cells): 4360 ± 338 nM
- IC50 (FLT-1): 20.9 nM
- IC50 (AXL): 589 nM
